The values that follow come from US20260226048A1, “MULTI-CYCLIC IRAK AND FLT3 INHIBITING COMPOUNDS AND USES THEREOF” (CHILDREN'S HOSPITAL MEDICAL CENTER, priority 2023, published 2026).

One assay has as its target T1, IRAK1 (Homo sapiens, UniProt P51617).
T1 construct: purchased Reaction Biology (RBC HotSpot)
Description: RBC HotSpot Kinase Assay, IRAK1. It is filed as biochemical. Particulars: isolated kinase enzyme, 33P-ATP, P81 filter-binding. The gist of the method: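 Reactions ran in 20 mM Hepes (pH 7.5) containing 10 mM MgCl2, 1 mM EGTA, 0.1 mM Na3VO4, 2 mM DTT, 0.02 mg/ml BSA, 0.01% Brij35 and 1% DMSO, plus required cofactors. Functional activity readout on the expressible enzyme form, sometimes C-terminally truncated or lacking receptor regulatory regions.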

The next assay concerns the target T2, IRAK4 (Homo sapiens, UniProt Q9NWZ3).
T2 sequence (Q9NWZ3 1-460): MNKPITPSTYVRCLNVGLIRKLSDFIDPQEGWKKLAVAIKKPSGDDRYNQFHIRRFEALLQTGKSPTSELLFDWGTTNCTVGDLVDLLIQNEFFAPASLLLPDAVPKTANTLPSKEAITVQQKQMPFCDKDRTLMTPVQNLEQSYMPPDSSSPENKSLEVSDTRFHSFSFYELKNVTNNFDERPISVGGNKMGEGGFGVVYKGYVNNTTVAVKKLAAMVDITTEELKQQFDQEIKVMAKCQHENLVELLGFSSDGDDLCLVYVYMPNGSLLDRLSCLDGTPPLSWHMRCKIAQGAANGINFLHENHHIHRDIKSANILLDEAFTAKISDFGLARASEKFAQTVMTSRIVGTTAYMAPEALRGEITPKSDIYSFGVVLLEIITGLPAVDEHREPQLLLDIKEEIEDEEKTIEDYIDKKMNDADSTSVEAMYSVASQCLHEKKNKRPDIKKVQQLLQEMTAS
Description: RBC HotSpot Kinase Assay, IRAK4. It is filed as biochemical. Details: purchased Reaction Biology (RBC HotSpot). Particulars: isolated kinase enzyme, 33P-ATP, P81 filter-binding. The gist of the method: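 Radiometric filter-binding activity assay with isolated recombinant kinase (construct may be truncated or catalytic domain only) in 20 mM Hepes pH 7.5, 10 mM MgCl2, 1 mM EGTA, 2 mM DTT, 1% DMSO. Compound preincubated 20 min with kinase/substrate; reaction started with 33P-ATP, run 2 h at room temperature.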

Assay [1] has as its system MOLM14-D835Y cells (FLT3-ITD (D835Y) mutant). The experiment in a line: Combination drug screening with venetoclax in MOLM14 (D835Y) cells (Cell Titre Glo, 10 × 10). It is filed as cell-based. The settings on record: for Excess HSA (sum excess HSA score, combination with venetoclax): 10 × 10 dataset, Cell Titre Glo at 48 hours, optimal of 4 dose combinations, negative = synergy; for Concentration of a compound of the disclosure, or gilteritinib, needed to decrease the 62.5 nM Ven response to <10% in MOLM14(D835Y) cells: combination with 62.5 nM Venetoclax, Cell Titer Glo, 48 hours, response <10%. Details: Excess HSA (sum excess HSA score, combination with venetoclax): scale not given here. As to the method: These assays were performed using the Cell Titre Glo assay, measured at 48 hours.
A smaller concentration indicates higher potency to synergize with Venetoclax.
Background: Cellular ATP, detected with luciferase, serves as a proxy for viable cell number.

In the next assay the test system is MOLM14 F691L cells. The experiment in a line: MOLM14 F691L cell viability assay (Cell Titer Glo). It is filed as cell-based. Particulars: Homo sapiens, MOLM-14; cell viability, Cell Titer Glo, 48 hours; read-out: MOLM14 F691L IC50. The gist of the method:
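Luminescent ATP read-out (CellTiter-Glo, 15 min room temperature) taken 48 h after compound addition. Cells were MOLM14 carrying FLT3 D835Y or F691L mutations, plated at 1000 cells per well.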

T1 sequence (P51617 whole entry): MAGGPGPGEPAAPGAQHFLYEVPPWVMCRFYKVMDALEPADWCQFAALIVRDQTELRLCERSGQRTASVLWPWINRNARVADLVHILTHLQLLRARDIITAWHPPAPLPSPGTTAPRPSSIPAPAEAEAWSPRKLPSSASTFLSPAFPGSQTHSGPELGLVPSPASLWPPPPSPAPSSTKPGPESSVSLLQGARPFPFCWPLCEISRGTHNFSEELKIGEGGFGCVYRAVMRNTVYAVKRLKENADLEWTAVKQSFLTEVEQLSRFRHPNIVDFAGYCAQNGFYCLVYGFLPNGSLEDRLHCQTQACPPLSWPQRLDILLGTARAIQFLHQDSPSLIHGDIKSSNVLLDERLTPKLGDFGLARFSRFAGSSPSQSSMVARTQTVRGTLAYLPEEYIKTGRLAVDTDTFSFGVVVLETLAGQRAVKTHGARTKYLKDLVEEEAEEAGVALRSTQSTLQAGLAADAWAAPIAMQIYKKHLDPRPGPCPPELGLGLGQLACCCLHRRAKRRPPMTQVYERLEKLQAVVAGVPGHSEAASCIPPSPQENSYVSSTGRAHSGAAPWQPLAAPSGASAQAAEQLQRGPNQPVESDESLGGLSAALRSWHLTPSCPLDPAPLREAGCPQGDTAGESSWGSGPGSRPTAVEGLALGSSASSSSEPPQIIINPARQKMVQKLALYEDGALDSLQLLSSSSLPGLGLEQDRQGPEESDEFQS

A word on the IC50: it is the point on the concentration scale where inhibition reaches its midpoint. With `CC(O)(c1ccc2ncc(-c3ccnc(N[C@@H]4CCCNC4)n3)n2c1)C(F)(F)F` (single isomer, unassigned) [Compound 22a], the IC50 on IRAK1 came to 19 nM; at IRAK4 it was 3 nM.

For the molecule `CC(O)(c1ccc2ncc(-c3ccnc(N[C@@H]4CCCNC4)n3)n2c1)C(F)(F)F` (single isomer, unassigned) [Compound 23a], the IC50 at IRAK1 amounted to 3 nM; on IRAK4, 0.8 nM.

With `CC(O)(c1ccc2ncc(-c3ccnc(N[C@H]4CNCC[C@@H]4F)n3)n2c1)C(F)(F)F` (single isomer, unassigned) [Compound 25a], in assay [1], the “Excess HSA (sum excess HSA score, combination with venetoclax)” value (“Excess HSA” below) was −1507 and the “Concentration of a compound of the disclosure, or gilteritinib, needed to decrease the 62.5 nM Ven response to <10% in MOLM14(D835Y) cells” value was determined as 25 nM. At IRAK1, this molecule registered an IC50 of 17 nM. The same molecule registered a half-inhibitory concentration (IC50) on IRAK4 of 2 nM.

As for `CC(O)(c1ccc2ncc(-c3cncc(N[C@@H]4CCCNC4)n3)n2c1)C(F)(F)F` (single isomer, unassigned) [Compound 28a], the IC50 on IRAK1 came out at 33 nM; on IRAK4, 3 nM.

Turning to `CC(O)(c1ccc2ncc(-c3cncc(N[C@H]4CNCC[C@@H]4F)n3)n2c1)C(F)(F)F` (single isomer, unassigned) [Compound 31a], the 50% inhibitory concentration (IC50) amounted to 17 nM on IRAK1 and 2 nM at IRAK4.

Turning to `COc1cc2ncc(-c3nc(N[C@H]4CNCC[C@@H]4F)ncc3F)n2nc1C1CC1` [Compound 1a, 4-(6-cyclopropyl-7-methoxyimidazo[1,2-b]pyridazin-3-yl)-5-fluoro-N-((3S,4S)-4-fluoropiperidin-3-yl)pyrimidin-2-amine], the concentration for half-maximal inhibition (IC50) with MOLM14 F691L cells worked out at 6 nM; on IRAK1, 1 nM; on IRAK4, 0.9 nM. Besides, the “Excess HSA” value in assay [1] is −1505. Besides, in assay [1], the “Concentration of a compound of the disclosure, or gilteritinib, needed to decrease the 62.5 nM Ven response to <10% in MOLM14(D835Y) cells” value was determined as 1.6 nM.

Regarding `FC(F)COc1cc2ncc(-c3ccnc(N[C@H]4CNCC[C@@H]4F)n3)n2nc1C1CC1` [Compound 4a, 4-(6-cyclopropyl-7-(2,2-difluoroethoxy)imidazo[1,2-b]pyridazin-3-yl)-N-((3 S,4S)-4-fluoropiperidin-3-yl)pyrimidin-2-amine], the IC50 in the assay on MOLM14 F691L cells amounted to 36 nM; on IRAK1 it was 31 nM; on IRAK4 it was 1 nM. Besides, the “Excess HSA” value in assay [1] was −1769. The “Concentration of a compound of the disclosure, or gilteritinib, needed to decrease the 62.5 nM Ven response to <10% in MOLM14(D835Y) cells” value in assay [1] is given as 6.3 nM.

For `F[C@H]1CCNC[C@@H]1Nc1nccc(-c2cnc3cc(OC4CC4)c(C4CC4)nn23)n1` [Compound 12a, 4-(7-cyclopropoxy-6-cyclopropylimidazo[1,2-b]pyridazin-3-yl)-N-((3S,4S)-4-fluoropiperidin-3-yl)pyrimidin-2-amine], the 50% inhibitory concentration (IC50) in the assay on MOLM14 F691L cells amounted to 101 nM; on IRAK1, 18 nM; on IRAK4, 6 nM. For the same molecule, the “Excess HSA” value in assay [1] is on record as −1236. Further, the “Concentration of a compound of the disclosure, or gilteritinib, needed to decrease the 62.5 nM Ven response to <10% in MOLM14(D835Y) cells” value in assay [1] worked out at 100 nM.

As to `COc1cc2ncc(-c3nc(N[C@H]4CNCC[C@@H]4F)ncc3F)n2nc1C(C)(C)O` [Compound 45a, 2-(3-(5-fluoro-2-(((3S,4S)-4-fluoropiperidin-3-yl)amino)pyrimidin-4-yl)-7-methoxyimidazo[1,2-b]pyridazin-6-yl)propan-2-ol], the IC50 with MOLM14 F691L cells amounted to 90 nM; on IRAK1, 18 nM; on IRAK4 it was 8 nM. Further, in assay [1], the “Excess HSA” value is on record as −2340. For the same molecule, the “Concentration of a compound of the disclosure, or gilteritinib, needed to decrease the 62.5 nM Ven response to <10% in MOLM14(D835Y) cells” value in assay [1] is recorded as 25 nM.

Consider `CC(C)(O)c1ccc2ncc(-c3nc(N[C@H]4CNCC[C@@H]4F)ncc3F)n2c1` [Compound 46a, 2-(3-(5-fluoro-2-(((3S,4S)-4-fluoropiperidin-3-yl)amino)pyrimidin-4-yl)imidazo[1,2-a]pyridin-6-yl)propan-2-ol], for which the IC50 in the assay with MOLM14 F691L cells was found to be 252 nM; at IRAK1, 6 nM; at IRAK4 it was 2 nM. In addition, the “Excess HSA” value in assay [1] was −1279. Moreover, in assay [1], the “Concentration of a compound of the disclosure, or gilteritinib, needed to decrease the 62.5 nM Ven response to <10% in MOLM14(D835Y) cells” value was 50 nM.

As to `CC(C)(O)c1ccc2ncc(-c3nc(N[C@@H]4CCCNC4)ncc3F)n2c1` [Compound 48a, (R)-2-(3-(5-fluoro-2-(piperidin-3-ylamino)pyrimidin-4-yl)imidazo[1,2-a]pyridin-6-yl)propan-2-ol], in assay [1], the “Excess HSA” value is −1694 and the “Concentration of a compound of the disclosure, or gilteritinib, needed to decrease the 62.5 nM Ven response to <10% in MOLM14(D835Y) cells” value came to 156.3 nM. Besides, at IRAK1, the IC50 was found to be 10 nM. In addition, on IRAK4, the IC50 came to 5 nM.

Turning to `COc1cc2ncc(-c3nc(N[C@H]4CNCC[C@@H]4F)ncc3F)n2nc1C1CC(F)(F)C1` [Compound 49a, 4-(6-(3,3-difluorocyclobutyl)-7-methoxyimidazo[1,2-b]pyridazin-3-yl)-5-fluoro-N-((3S,4S)-4-fluoropiperidin-3-yl)pyrimidin-2-amine], in assay [1], the “Excess HSA” value is listed as −1960 and the “Concentration of a compound of the disclosure, or gilteritinib, needed to decrease the 62.5 nM Ven response to <10% in MOLM14(D835Y) cells” value came to 6.3 nM. Also, the IC50 at IRAK1 amounted to 2 nM. In addition, the IC50 on IRAK4 stood at 0.5 nM.

In the case of `COc1cc2ncc(-c3nc(N[C@@H]4CCCNC4)ncc3F)n2nc1C1CC2(CCC2)C1` [Compound 59a, (R)-5-fluoro-4-(7-methoxy-6-(spiro[3.3]heptan-2-yl)imidazo[1,2-b]pyridazin-3-yl)-N-(piperidin-3-yl)pyrimidin-2-amine], the IC50 with MOLM14 F691L cells amounted to 45 nM; on IRAK1 it was 0.7 nM; on IRAK4, 3 nM. Moreover, in assay [1], the “Excess HSA” value was −1911. Also, the “Concentration of a compound of the disclosure, or gilteritinib, needed to decrease the 62.5 nM Ven response to <10% in MOLM14(D835Y) cells” value in assay [1] is 12.5 nM.

In the case of `COc1cc2ncc(-c3nc(N[C@H]4CNCC[C@@H]4F)ncc3F)n2nc1C1CC2(CCC2)C1` [Compound 60a, 5-fluoro-N-((3S,4S)-4-fluoropiperidin-3-yl)-4-(7-methoxy-6-(spiro[3.3]heptan-2-yl)imidazo[1,2-b]pyridazin-3-yl)pyrimidin-2-amine], the IC50 in the assay on MOLM14 F691L cells amounted to 90 nM; at IRAK1 it was 4 nM; at IRAK4, 8 nM. The “Excess HSA” value in assay [1] is listed as −1497.3117. Moreover, the “Concentration of a compound of the disclosure, or gilteritinib, needed to decrease the 62.5 nM Ven response to <10% in MOLM14(D835Y) cells” value in assay [1] amounted to 25 nM.

`COc1cc2ncc(-c3ccnc(N[C@H]4CNCC[C@@H]4F)n3)n2nc1C1CCC1` [Compound 79a, 4-(6-cyclobutyl-7-methoxyimidazo[1,2-b]pyridazin-3-yl)-N-((3S,4S)-4-fluoropiperidin-3-yl)pyrimidin-2-amine]: the IC50 was 101 nM in the assay with MOLM14 F691L cells, 33 nM at IRAK1 and 2 nM at IRAK4. In addition, in assay [1], the “Excess HSA” value is −1180. For the same molecule, the “Concentration of a compound of the disclosure, or gilteritinib, needed to decrease the 62.5 nM Ven response to <10% in MOLM14(D835Y) cells” value in assay [1] came out at 25 nM.

On to `COc1cc2ncc(-c3nc(N[C@H]4CNCC[C@@H]4F)ncc3F)n2nc1C1COC1` [Compound 92a, 5-fluoro-N-((3S,4S)-4-fluoropiperidin-3-yl)-4-(7-methoxy-6-(oxetan-3-yl)imidazo[1,2-b]pyridazin-3-yl)pyrimidin-2-amine], for which the concentration for half-maximal inhibition (IC50) in the assay on MOLM14 F691L cells is 40 nM; on IRAK1, 4 nM; on IRAK4, less than 0.5 nM. The “Concentration of a compound of the disclosure, or gilteritinib, needed to decrease the 62.5 nM Ven response to <10% in MOLM14(D835Y) cells” value in assay [1] is 12.5 nM.

Regarding `COc1cc2ncc(-c3nc(N[C@H]4CNC[C@@H]4F)ncc3F)n2nc1N1CCCS1(=O)=O` [Compound 111a, 2-(3-(5-fluoro-2-(((3S,4S)-4-fluoropyrrolidin-3-yl)amino)pyrimidin-4-yl)-7-methoxyimidazo[1,2-b]pyridazin-6-yl)isothiazolidine 1,1-dioxide], the concentration for half-maximal inhibition (IC50) in the assay on MOLM14 F691L cells worked out at 113 nM; on IRAK1, 40 nM; at IRAK4, 3 nM.

As to `COc1cc2ncc(-c3nc(N[C@H]4CNCC[C@@H]4F)ncc3F)n2nc1N1CCCS1(=O)=O` [Compound 112a, 2-(3-(5-fluoro-2-(((3S,4S)-4-fluoropiperidin-3-yl)amino)pyrimidin-4-yl)-7-methoxyimidazo[1,2-b]pyridazin-6-yl)isothiazolidine 1,1-dioxide], the figures for the IC50 in the assay with MOLM14 F691L cells, at IRAK1 and on IRAK4 were 23 nM, 19 nM and 3 nM, respectively.
